Results published in ChEMBL document CHEMBL4251606, “Design and characterization of α-lipoic acyl shikonin ester twin drugs as tubulin and PDK1 dual inhibitors” (Eur J Med Chem, 2018).
The source made the active and inactive calls. The rule behind the calls is not given here.

Legend:
HeLa [1] = assay: Induction of apoptosis in human HeLa cells assessed as viable cells at 1 uM after 24 hrs by Annexin V-APC/propidium iodide staining-based FACScan flow cytometric analysis (reference value: 85.1%); assay type: functional; details: read-out: Activity
HeLa [2] = assay: Induction of apoptosis in human HeLa cells assessed as viable cells at 6 uM after 12 hrs by Annexin V-APC/propidium iodide staining-based FACScan flow cytometric analysis (reference value: 93%); assay type: functional; details: read-out: Activity
HeLa [3] = assay: Induction of apoptosis in human HeLa cells assessed as increase in Bax expression up to 8 uM after 24 hrs by Western blot analysis; assay type: functional, cell-based
HepG2 = assay: Antiproliferative activity against human HepG2 cells after 24 hrs by MTT assay; assay type: functional, cell-based; details: HepG2, 24 h
HeLa [4] = assay: Reduction in lactate production in human HeLa cells at 2 to 8 uM; assay type: functional, cell-based
HeLa [5] = assay: Antitumor activity against human HeLa cells xenografted in nude mouse assessed as increase in mouse survival at 2 mg/kg, ip administered once in every 2 days for 15 days relative to control; assay type: functional, organism-based

## CC(C)=CC[C@@H](OC(=O)CCCC[C@@H]1CCSC(c2ccccc2)S1)C1=CC(=O)c2c(O)ccc(O)c2C1=O (stereo partly specified)
HeLa [1]
  viability at 1 µM: 37%
HeLa [2]
  viability at 6 µM: 48.8%
HeLa [3]
  Activity: Active
HepG2
  IC50: 5.37 µM
HeLa [4]
  Activity: Active
HeLa [5]
  Activity: Active
